Test system: MDA-MB-231 multicell spheroids, viability (%T/C)
Assay: Anticancer human tumor MDA-MB-231 cell line growth inhibition [IpAb];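 further: viability read after seven days of drug exposure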;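 on viability, T/C: 100% = DMSO vehicle control viability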
Conditions: for IC50: curve of first compound; for viability, T/C: stronger effect = lower value
Method in brief: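 Multi-cell spheroids of 60% tumour cells, 25% HUVEC and 15% MSC in ultra-low-attachment U-bottom wells, treated with agents combined with ipatasertib or abemaciclib. Half-log ranges top out near clinical Cmax, or 10 microM when Cmax is unknown.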

[1] = second compound 0.1 µM, first compound 0.0316 µM
[2] = second compound 0.1 µM, first compound 0.1 µM
[3] = second compound 0.1 µM, first compound 0.316 µM
[4] = second compound 0.1 µM, first compound 1 µM
[5] = second compound 0.1 µM, first compound 3.16 µM
[6] = second compound 0.1 µM, first compound 10 µM
[7] = second compound 0.316 µM, first compound 0.0316 µM
[8] = second compound 0.316 µM, first compound 0.1 µM
[9] = second compound 0.316 µM, first compound 0.316 µM
[10] = second compound 0.316 µM, first compound 1 µM
[11] = second compound 0.316 µM, first compound 3.16 µM
[12] = second compound 0.316 µM, first compound 10 µM
[13] = second compound 1 µM, first compound 0.0316 µM
[14] = second compound 1 µM, first compound 0.1 µM
[15] = second compound 1 µM, first compound 0.316 µM
[16] = second compound 1 µM, first compound 1 µM
[17] = second compound 1 µM, first compound 3.16 µM
[18] = second compound 1 µM, first compound 10 µM
[19] = second compound 3.16 µM, first compound 0.0316 µM
[20] = second compound 3.16 µM, first compound 0.1 µM
[21] = second compound 3.16 µM, first compound 0.316 µM
[22] = second compound 3.16 µM, first compound 1 µM
[23] = second compound 3.16 µM, first compound 3.16 µM
[24] = second compound 3.16 µM, first compound 10 µM
[25] = second compound 10 µM, first compound 0.0316 µM
[26] = second compound 10 µM, first compound 0.1 µM
[27] = second compound 10 µM, first compound 0.316 µM
[28] = second compound 10 µM, first compound 1 µM
[29] = second compound 10 µM, first compound 3.16 µM
[30] = second compound 10 µM, first compound 10 µM

Structure (SMILES) | IC50 (second compound 0.1 µM) [nM] | IC50 (second compound 0.316 µM) [nM] | IC50 (second compound 1 µM) [nM] | IC50 (second compound 3.16 µM) [nM] | IC50 (second compound 10 µM) [nM] | viability, T/C [1] [%] | viability, T/C [2] [%] | viability, T/C [3] [%] | viability, T/C [4] [%] | viability, T/C [5] [%] | viability, T/C [6] [%] | viability, T/C [7] [%] | viability, T/C [8] [%] | viability, T/C [9] [%] | viability, T/C [10] [%] | viability, T/C [11] [%] | viability, T/C [12] [%] | viability, T/C [13] [%] | viability, T/C [14] [%] | viability, T/C [15] [%] | further results
Cc1nc(NC(=O)N2CCCC2C(N)=O)sc1-c1ccnc(C(C)(C)C(F)(F)F)c1 (stereo not given) + CC(C)NCC(C(=O)N1CCN(c2ncnc3c2C(C)CC3O)CC1)c1ccc(Cl)cc1 | > 10000 | > 10000 | > 10000 | < 31.6 | < 31.6 | 84.1 | 71.3 | 64.7 | 71.8 | 71.4 | 62.5 | 74.8 | 63.7 | 58.3 | 59.9 | 64.8 | 60.8 | 63.1 | 58.7 | 55.3 | viability, T/C [16]: 55.3%; viability, T/C [17]: 58%; viability, T/C [18]: 55.8%; viability, T/C [19]: 50.7%; viability, T/C [20]: 45.8%; viability, T/C [21]: 41.4%; viability, T/C [22]: 46%; viability, T/C [23]: 46.1%; viability, T/C [24]: 42.6%; viability, T/C [25]: 35.2%; viability, T/C [26]: 33.1%; viability, T/C [27]: 31.6%; viability, T/C [28]: 33.1%; viability, T/C [29]: 37.8%; viability, T/C [30]: 32.8%
Cn1nccc1Nc1nccc(-c2ccn(C(CO)c3ccc(Cl)c(F)c3)c(=O)c2)n1 (stereo not given) + CC(C)NCC(C(=O)N1CCN(c2ncnc3c2C(C)CC3O)CC1)c1ccc(Cl)cc1 | 259 | 45.9 | < 31.6 | < 31.6 | < 31.6 | 64.3 | 53.5 | 48.7 | 43.1 | 25.2 | 18.7 | 52.8 | 43.8 | 38.1 | 29.3 | 23.5 | 18 | 38.7 | 36.1 | 32.2 | viability, T/C [16]: 27.8%; viability, T/C [17]: 16.3%; viability, T/C [18]: 15.3%; viability, T/C [19]: 34.3%; viability, T/C [20]: 28.7%; viability, T/C [21]: 27.1%; viability, T/C [22]: 21.5%; viability, T/C [23]: 12.9%; viability, T/C [24]: 10.4%; viability, T/C [25]: 24.2%; viability, T/C [26]: 22.8%; viability, T/C [27]: 16.7%; viability, T/C [28]: 14.9%; viability, T/C [29]: 9%; viability, T/C [30]: 6.42%
Cn1ncc(Cl)c1-c1cc(C(=O)NC(CN)Cc2cccc(F)c2)sc1Cl (stereo not given) + CC(C)NCC(C(=O)N1CCN(c2ncnc3c2C(C)CC3O)CC1)c1ccc(Cl)cc1 | 1590 | 1270 | 1100 | 471 | < 31.6 | 99.1 | 88 | 80.3 | 61.8 | 33 | 0.11 | 70.7 | 79.4 | 71.2 | 49 | 34.3 | 0.12 | 74.1 | 71.9 | 63.1 | viability, T/C [16]: 50.6%; viability, T/C [17]: 32.8%; viability, T/C [18]: 0.11%; viability, T/C [19]: 57.3%; viability, T/C [20]: 59.1%; viability, T/C [21]: 49.7%; viability, T/C [22]: 43%; viability, T/C [23]: 33.6%; viability, T/C [24]: 0.34%; viability, T/C [25]: 42.2%; viability, T/C [26]: 41.1%; viability, T/C [27]: 37.5%; viability, T/C [28]: 37.5%; viability, T/C [29]: 26.1%; viability, T/C [30]: 0.49%
